Measured values as given in ChEMBL document CHEMBL5465560, “Selectivity Literature for EUbOPEN Chemogenomic Library” (2024).

What was measured:
[1] = target: Serine/threonine-protein kinase 33 (Homo sapiens) (UniProt Q9BYT3); settings: at 10 µM
[2] = target: Myosin light chain kinase 2, skeletal/cardiac muscle (Homo sapiens) (UniProt Q9H1R3); settings: at 10 µM
[3] = target: TGF-beta receptor type-2 (Homo sapiens) (UniProt P37173); settings: at 10 µM
[4] = target: Cyclin-dependent kinase 7 (Homo sapiens, UniProt P50613); assay: Selectivity interaction (KinomeScan (DiscoverX)) EUB0000229b CDK7; settings: at 10 µM
[5] = target: Wee1-like protein kinase 2 (Homo sapiens) (UniProt P0C1S8); assay: Selectivity interaction (KinomeScan (DiscoverX)) EUB0000092b WEE2; settings: at 10 µM
[6] = target: Protein-tyrosine kinase 2-beta (Homo sapiens) (UniProt Q14289); assay: Selectivity interaction (Upstate Kinase Profiler service (Millipore)) EUB0000056c PTK2B; settings: at 1 µM
[7] = target: Death-associated protein kinase 1 (Homo sapiens, UniProt P53355); assay: Selectivity interaction (ProQinase) EUB0000171b DAPK1
[8] = target: Receptor tyrosine-protein kinase erbB-4 (Homo sapiens, UniProt Q15303); settings: at 10 µM
[9] = target: T1, Serine/threonine-protein kinase Nek9 (Homo sapiens) (UniProt Q8TD19); settings: at 10 µM
T1 sequence (whole entry): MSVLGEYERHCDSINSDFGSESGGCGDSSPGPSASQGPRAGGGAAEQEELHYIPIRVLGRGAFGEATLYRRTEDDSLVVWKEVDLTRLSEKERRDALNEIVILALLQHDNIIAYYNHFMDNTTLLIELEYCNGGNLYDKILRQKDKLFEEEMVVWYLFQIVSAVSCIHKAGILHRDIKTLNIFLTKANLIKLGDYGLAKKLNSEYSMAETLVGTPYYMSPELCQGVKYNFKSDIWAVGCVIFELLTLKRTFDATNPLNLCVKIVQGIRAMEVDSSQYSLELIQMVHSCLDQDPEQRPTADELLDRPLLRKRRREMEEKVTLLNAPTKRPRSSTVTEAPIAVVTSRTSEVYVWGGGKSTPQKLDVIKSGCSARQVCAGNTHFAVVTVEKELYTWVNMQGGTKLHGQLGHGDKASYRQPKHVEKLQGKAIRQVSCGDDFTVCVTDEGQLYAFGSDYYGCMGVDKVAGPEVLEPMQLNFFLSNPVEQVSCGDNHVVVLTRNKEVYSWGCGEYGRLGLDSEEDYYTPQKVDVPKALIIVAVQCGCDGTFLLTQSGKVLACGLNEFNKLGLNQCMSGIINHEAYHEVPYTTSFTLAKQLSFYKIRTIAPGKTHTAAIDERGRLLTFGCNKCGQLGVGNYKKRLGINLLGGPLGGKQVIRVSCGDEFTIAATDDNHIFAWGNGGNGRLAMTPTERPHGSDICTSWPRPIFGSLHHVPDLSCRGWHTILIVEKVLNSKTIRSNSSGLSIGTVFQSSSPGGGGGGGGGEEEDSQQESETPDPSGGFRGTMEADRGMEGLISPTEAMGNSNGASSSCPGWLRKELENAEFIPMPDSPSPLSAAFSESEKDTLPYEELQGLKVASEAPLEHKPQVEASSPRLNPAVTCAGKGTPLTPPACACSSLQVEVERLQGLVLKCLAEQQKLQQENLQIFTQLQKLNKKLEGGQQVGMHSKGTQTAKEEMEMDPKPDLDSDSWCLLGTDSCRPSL

[10] = target: Serine/threonine-protein kinase Chk2 (Homo sapiens) (UniProt O96017); assay: Selectivity interaction (KinomeScan (DiscoverX)) EUB0000607a CHEK2; settings: at 10 µM
[11] = target: T2, Serine/threonine-protein kinase TAO1 (Homo sapiens) (UniProt Q7L7X3); assay: Selectivity interaction (KinomeScan (DiscoverX)) EUB0000618a TAOK1; settings: at 10 µM
T2 sequence (whole entry): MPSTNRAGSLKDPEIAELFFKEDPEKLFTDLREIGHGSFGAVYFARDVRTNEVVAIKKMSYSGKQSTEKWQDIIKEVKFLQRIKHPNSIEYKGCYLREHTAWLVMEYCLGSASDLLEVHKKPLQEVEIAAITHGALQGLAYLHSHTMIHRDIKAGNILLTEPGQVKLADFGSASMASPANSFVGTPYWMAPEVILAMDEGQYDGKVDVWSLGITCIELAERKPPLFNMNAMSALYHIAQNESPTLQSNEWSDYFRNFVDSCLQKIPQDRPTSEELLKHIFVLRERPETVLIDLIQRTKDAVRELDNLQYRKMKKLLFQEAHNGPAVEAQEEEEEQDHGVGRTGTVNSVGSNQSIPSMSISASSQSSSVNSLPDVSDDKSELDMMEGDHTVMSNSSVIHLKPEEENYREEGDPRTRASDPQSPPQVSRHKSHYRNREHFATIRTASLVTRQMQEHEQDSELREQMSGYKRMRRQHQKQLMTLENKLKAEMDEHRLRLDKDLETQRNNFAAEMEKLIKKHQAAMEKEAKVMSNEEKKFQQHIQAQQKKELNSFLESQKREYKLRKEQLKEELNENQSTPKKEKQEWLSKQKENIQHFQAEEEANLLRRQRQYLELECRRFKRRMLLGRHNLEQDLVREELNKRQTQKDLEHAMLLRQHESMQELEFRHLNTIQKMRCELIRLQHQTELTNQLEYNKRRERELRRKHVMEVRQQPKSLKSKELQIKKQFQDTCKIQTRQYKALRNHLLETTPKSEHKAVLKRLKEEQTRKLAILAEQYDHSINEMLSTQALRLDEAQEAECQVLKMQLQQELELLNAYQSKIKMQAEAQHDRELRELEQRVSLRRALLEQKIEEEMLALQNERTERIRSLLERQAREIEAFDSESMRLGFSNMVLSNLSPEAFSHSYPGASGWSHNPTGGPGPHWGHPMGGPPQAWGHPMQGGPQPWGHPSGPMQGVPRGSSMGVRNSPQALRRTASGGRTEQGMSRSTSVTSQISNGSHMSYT

Chain of Death-associated protein kinase 1 (P53355 whole entry, looked up): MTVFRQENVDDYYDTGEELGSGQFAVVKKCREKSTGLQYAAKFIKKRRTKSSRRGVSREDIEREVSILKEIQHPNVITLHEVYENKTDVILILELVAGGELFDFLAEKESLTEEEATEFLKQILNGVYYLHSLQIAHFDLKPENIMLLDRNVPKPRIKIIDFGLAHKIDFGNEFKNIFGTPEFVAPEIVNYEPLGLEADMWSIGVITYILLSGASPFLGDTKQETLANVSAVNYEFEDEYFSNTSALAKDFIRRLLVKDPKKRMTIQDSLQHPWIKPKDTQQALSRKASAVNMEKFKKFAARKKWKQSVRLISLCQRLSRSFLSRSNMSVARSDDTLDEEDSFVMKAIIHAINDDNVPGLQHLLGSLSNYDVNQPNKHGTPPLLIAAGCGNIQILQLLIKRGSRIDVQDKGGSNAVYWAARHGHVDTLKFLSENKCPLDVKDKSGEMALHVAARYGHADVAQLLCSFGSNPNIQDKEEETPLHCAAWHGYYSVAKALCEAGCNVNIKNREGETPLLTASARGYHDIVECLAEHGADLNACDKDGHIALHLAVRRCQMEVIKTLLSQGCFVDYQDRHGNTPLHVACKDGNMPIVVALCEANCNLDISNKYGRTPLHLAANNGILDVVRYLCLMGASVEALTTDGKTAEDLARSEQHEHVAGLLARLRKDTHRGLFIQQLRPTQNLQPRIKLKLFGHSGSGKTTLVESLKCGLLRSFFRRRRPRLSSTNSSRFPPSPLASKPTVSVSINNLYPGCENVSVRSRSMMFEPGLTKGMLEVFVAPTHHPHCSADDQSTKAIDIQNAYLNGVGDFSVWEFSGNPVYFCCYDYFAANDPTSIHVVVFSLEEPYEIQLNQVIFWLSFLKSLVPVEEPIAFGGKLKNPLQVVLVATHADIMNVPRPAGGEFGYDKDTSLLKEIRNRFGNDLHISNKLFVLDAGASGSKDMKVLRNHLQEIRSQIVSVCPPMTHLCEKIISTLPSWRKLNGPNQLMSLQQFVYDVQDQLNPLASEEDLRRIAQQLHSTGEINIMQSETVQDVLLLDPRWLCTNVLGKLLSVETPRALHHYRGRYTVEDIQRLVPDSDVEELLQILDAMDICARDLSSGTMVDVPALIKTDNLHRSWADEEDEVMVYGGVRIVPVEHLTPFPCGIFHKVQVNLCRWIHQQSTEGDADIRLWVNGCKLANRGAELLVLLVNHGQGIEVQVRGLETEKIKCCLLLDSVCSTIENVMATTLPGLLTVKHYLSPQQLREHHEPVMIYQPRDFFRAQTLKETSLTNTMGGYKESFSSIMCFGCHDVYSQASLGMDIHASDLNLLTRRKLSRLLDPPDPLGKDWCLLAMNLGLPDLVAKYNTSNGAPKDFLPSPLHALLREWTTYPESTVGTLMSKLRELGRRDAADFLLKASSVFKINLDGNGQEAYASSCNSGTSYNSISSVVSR
Chain of Serine/threonine-protein kinase Chk2 (Homo sapiens) (O96017 whole entry): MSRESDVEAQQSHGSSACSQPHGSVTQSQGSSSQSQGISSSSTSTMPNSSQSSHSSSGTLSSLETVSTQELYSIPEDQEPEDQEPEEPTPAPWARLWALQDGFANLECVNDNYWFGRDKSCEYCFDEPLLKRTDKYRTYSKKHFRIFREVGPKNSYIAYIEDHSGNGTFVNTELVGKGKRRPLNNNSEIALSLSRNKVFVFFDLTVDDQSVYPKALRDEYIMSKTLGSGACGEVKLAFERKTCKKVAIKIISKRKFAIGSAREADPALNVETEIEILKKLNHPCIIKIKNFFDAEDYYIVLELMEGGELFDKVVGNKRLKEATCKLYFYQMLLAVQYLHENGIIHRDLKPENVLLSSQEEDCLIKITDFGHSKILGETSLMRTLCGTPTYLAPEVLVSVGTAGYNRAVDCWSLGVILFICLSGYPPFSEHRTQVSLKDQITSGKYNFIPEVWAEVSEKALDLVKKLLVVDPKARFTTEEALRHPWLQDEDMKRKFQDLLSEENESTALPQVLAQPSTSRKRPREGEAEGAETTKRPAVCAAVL
Chain of Protein-tyrosine kinase 2-beta (Homo sapiens) (Q14289 whole entry, looked up): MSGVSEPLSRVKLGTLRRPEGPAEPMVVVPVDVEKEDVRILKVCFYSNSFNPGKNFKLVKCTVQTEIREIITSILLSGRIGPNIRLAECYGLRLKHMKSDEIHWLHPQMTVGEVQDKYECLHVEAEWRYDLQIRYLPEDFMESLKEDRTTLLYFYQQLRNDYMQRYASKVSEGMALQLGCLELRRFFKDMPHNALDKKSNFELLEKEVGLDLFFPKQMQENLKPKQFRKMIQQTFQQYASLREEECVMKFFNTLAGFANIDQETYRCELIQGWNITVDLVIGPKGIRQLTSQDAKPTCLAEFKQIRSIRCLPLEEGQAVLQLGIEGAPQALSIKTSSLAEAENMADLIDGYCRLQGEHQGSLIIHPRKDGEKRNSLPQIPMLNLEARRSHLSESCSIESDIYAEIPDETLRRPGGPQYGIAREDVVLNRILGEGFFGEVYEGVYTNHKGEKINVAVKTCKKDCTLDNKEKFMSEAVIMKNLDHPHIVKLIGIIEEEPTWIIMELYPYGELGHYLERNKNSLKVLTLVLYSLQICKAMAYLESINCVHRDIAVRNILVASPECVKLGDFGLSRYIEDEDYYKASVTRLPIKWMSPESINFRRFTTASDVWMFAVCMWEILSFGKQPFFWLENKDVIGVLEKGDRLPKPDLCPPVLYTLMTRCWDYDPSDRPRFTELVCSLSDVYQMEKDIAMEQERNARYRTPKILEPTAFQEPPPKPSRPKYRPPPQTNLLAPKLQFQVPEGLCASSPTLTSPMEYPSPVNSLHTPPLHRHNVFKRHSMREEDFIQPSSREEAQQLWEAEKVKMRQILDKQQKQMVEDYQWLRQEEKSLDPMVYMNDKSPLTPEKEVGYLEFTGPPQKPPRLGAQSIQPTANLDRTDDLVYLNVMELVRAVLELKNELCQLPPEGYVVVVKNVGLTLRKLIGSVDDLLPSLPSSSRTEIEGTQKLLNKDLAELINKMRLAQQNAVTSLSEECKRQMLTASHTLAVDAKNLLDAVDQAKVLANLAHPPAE
Chain of Receptor tyrosine-protein kinase erbB-4 (Q15303 whole entry): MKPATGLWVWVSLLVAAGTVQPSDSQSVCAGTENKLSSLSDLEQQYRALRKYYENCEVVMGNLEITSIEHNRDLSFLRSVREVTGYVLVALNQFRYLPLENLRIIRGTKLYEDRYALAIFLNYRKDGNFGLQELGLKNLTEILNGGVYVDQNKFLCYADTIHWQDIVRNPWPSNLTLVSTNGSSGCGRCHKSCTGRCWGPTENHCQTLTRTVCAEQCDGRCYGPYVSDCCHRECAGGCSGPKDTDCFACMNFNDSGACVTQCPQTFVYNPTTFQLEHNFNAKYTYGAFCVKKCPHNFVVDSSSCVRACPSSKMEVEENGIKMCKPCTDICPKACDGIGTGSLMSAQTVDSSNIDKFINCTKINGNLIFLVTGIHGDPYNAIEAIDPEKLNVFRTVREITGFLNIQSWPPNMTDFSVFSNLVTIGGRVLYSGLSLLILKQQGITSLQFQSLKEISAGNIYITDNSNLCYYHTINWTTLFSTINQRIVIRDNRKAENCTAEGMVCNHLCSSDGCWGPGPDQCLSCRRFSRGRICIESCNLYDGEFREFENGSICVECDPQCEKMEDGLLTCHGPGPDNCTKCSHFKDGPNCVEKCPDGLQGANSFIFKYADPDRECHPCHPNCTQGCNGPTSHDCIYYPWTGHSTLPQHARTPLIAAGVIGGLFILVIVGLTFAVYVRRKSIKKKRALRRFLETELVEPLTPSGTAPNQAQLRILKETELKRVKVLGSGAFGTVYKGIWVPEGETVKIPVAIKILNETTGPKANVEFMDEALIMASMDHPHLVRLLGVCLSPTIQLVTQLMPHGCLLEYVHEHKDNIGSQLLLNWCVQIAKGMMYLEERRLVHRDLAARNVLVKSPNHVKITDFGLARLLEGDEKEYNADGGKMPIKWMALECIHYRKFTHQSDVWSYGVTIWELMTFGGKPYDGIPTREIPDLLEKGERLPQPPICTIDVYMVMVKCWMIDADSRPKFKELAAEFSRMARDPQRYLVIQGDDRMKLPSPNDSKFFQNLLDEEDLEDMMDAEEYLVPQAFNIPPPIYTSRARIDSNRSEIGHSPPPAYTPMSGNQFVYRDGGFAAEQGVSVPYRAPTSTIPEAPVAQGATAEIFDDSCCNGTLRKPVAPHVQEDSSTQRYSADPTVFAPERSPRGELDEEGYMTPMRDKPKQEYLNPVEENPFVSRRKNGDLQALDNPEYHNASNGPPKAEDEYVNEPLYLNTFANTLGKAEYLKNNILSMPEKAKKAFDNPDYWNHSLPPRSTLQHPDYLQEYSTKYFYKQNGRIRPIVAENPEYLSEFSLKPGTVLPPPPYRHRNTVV
Chain of Serine/threonine-protein kinase 33 (Homo sapiens) (Q9BYT3 whole entry, looked up): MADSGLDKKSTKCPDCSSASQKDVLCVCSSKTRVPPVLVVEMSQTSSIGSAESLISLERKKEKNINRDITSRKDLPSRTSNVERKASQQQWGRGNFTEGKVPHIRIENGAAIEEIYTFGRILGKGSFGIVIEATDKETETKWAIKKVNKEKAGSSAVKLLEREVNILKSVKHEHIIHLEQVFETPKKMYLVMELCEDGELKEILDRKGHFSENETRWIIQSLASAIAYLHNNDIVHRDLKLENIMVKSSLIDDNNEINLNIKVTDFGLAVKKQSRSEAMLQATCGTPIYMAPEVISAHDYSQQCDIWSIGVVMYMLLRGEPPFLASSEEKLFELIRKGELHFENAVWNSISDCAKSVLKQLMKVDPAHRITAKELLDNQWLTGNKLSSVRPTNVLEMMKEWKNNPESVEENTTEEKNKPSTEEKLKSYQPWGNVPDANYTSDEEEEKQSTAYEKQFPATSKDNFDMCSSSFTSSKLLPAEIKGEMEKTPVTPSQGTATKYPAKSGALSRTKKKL

Which % of control [1] does the source give for `CCN(CC)CCCCNc1ncc2cc(-c3cc(OC)cc(OC)c3)c(NC(=O)NC(C)(C)C)nc2n1` here?
The % of control was 100%.

And the % of control [2]?
The % of control was 100%.

And the % of control [3]?
The % of control was 100%.

For `COc1cc(N(C)c2ccnc3ccc(C(F)(F)F)cc23)cc(OC)c1OC`, which % binding [4] is on record?
Its % binding is 57%.

How did the % of control [5] turn out when `CCC(=O)N1CCN(c2ccc(-n3c(=O)ccc4cnc5ccc(-c6cnc7ccccc7c6)cc5c43)cc2C(F)(F)F)CC1` was run?
Its % of control is 100%.

Which % of inhibition [6] does the source give for `Cc1ccc(-c2ccc3c(ccc4sc5c(c43)NC[C@@H](C)NC5=O)n2)cn1` here?
Its % of inhibition is 12%.

With `C=CC(=O)Nc1cccc(C(=O)Nc2ccc(Nc3cc(-c4[nH]c(SC)nc4C)ccn3)cc2)c1` as the compound, how does the % of control ([7]; at 1 µM) read?
Its % of control is 100%.

And the % of control ([7]; at 5 µM)?
The % of control was 94%.

How did the % of control [8] turn out when `Cc1cc([C@@H](C)Nc2ccccc2C(=O)O)c2nc(N3CCOCC3)cc(=O)n2c1` [AZD-6482] was run?
The % of control was 100%.

And the % of control [9]?
Its % of control is 100%.

With `CNC(=O)Nc1ccc(-c2nc(N3CC4CCC(C3)O4)c3cnn(C4CCC5(CC4)OCCO5)c3n2)cc1` as the compound, how does the % of control [10] read?
The % of control was 84%.

For `O[C@H]1CC[C@H](Nc2ncc3nc(Nc4c(F)cc(F)cc4F)n([C@H]4CCOC4)c3n2)CC1`, which % of control [11] is on record?
The % of control was 81%.
